The compounds below were run against T1, bromodomain BRD4 (44-168), BRD4 (333-460), and BRD4 (1-477 or 44-460) (Homo sapiens, UniProt O60885) (assay: Time Resolved Fluorescence Resonance Energy Transfer (TR-FRET) binding assay). Details: one of the FRET assays described.
T1 construct: BRD4(44-168), BRD4(333-460), BRD4(44-460), BRD4(1-477), O60885-1; fused on or other part: N-terminal BirA biotinylation motif, biotinylated; The TVMV-cleavable His6 tag is removed, except in some BRD4(44-460) runs detected with anti-His terbium cryptate

| Compound | IC50 |
| --- | --- |
| CCNC(=O)c1cc(-c2c(C)noc2C)cc2c1c1cc(N3CCCOC3=O)ccc1n2Cc1ccccc1 [Example 165, 9-benzyl-2-(3,5-dimethyl-4-isoxazolyl)-N-ethyl-6-(2-oxo-1,3-oxazinan-3-yl)-9H-carbazole-4-carboxamide] | < 500 nM |
| CCNC(=O)c1cc(-c2c(C)noc2C)cc2c1c1cc(N3CCCOC3=O)ccc1n2Cc1ccc(Cl)cc1 [Example 166, 9-(4-chlorobenzyl)-2-(3,5-dimethyl-4-isoxazolyl)-N-ethyl-6-(2-oxo-1,3-oxazinan-3-yl)-9H-carbazole-4-carboxamide] | < 7500 nM |
| CCNC(=O)c1cc(-c2c(C)noc2C)cc2c1c1cc(N3CCCOC3=O)ccc1n2C(C)c1ccccc1 (centres unmarked) [Example 167, 2-(3,5-dimethyl-4-isoxazolyl)-N-ethyl-6-(2-oxo-1,3-oxazinan-3-yl)-(1-phenylethyl)-9H-carbazole-4-carboxamide] | < 50 nM |
| CNC(=O)c1cc(-c2c(C)noc2C)cc2[nH]c3ccc(N4CCCOC4=O)cc3c12 [Example 168, 2-(3,5-dimethyl-4-isoxazolyl)-N-methyl-6-(2-oxo-1,3-oxazinan-3-yl)-9H-carbazole-4-carboxamide] | < 500 nM |
| CNC(=O)c1cc(-c2c(C)noc2C)cc2c1c1cc(N3CCCOC3=O)ccc1n2Cc1ccccc1 [Example 169, 9-benzyl-2-(3,5-dimethyl-4-isoxazolyl)-N-methyl-6-(2-oxo-1,3-oxazinan-3-yl)-9H-carbazole-4-carboxamide] | < 50 nM |
| CNC(=O)c1cc(-c2c(C)noc2C)cc2c1c1cc(N3CCCOC3=O)ccc1n2Cc1ccc(Cl)cc1 [Example 170, 9-(4-chlorobenzyl)-2-(3,5-dimethyl-4-isoxazolyl)-N-methyl-6-(2-oxo-1,3-oxazinan-3-yl)-9H-carbazole-4-carboxamide] | < 50 nM |
| CNC(=O)c1cc(-c2c(C)noc2C)cc2c1c1cc(N3CCCOC3=O)ccc1n2Cc1ccc(F)cc1 [Example 171, 2-(3,5-dimethyl-4-isoxazolyl)-9-(4-fluorobenzyl)-N-methyl-6-(2-oxo-1,3-oxazinan-3-yl)-9H-carbazole-4-carboxamide] | < 50 nM |
| CNC(=O)c1cc(-c2c(C)noc2C)cc2c1c1cc(N3CCCOC3=O)ccc1n2Cc1ccc(Cl)c(F)c1 [Example 172, 9-(4-chloro-3-fluorobenzyl)-2-(3,5-dimethyl-4-isoxazolyl)-N-methyl-6-(2-oxo-1,3-oxazinan-3-yl)-9H-carbazole-4-carboxamide] | < 50 nM |
| CNC(=O)c1cc(-c2c(C)noc2C)cc2c1c1cc(N3CCCOC3=O)ccc1n2C(C)c1ccccc1 (centres unmarked) [Example 173, 2-(3,5-dimethyl-4-isoxazolyl)-N-methyl-6-(2-oxo-1,3-oxazinan-3-yl)-9-(1-phenylethyl)-9H-carbazole-4-carboxamide] | < 7500 nM |
| Cc1noc(C)c1-c1cc(C(N)=O)c2c3cc(N4CCCS4(=O)=O)ccc3n(Cc3ccc(F)cc3)c2c1 [Example 174, 2-(3,5-dimethyl-4-isoxazolyl)-6-(1,1-dioxido-2-isothiazolidinyl)-9-(4-fluorobenzyl)-9H-carbazole-4-carboxamide] | < 50 nM |
| Cc1noc(C)c1-c1cc(C(N)=O)c2c3cc(N4CCCCS4(=O)=O)ccc3n(Cc3ccc(F)cc3)c2c1 [Example 175, 2-(3,5-dimethyl-4-isoxazolyl)-6-(1,1-dioxido-1,2-thiazinan-2-yl)-9-(4-fluorobenzyl)-9H-carbazole-4-carboxamide] | < 50 nM |
| COc1ccc2c(c1)c1c(C(N)=O)cc(-c3c(C)noc3C)cc1n2C(C)c1ccccc1 (centres unmarked) [Example 176, 2-(3,5-dimethyl-4-isoxazolyl)-6-methoxy-9-(1-phenylethyl)-9H-carbazole-4-carboxamide] | < 50 nM |
| COc1ccc2c(c1)c1c(C(N)=O)cc(-c3c(C)noc3C)cc1n2Cc1ccccc1 [Example 177, 9-benzyl-2-(3,5-dimethyl-4-isoxazolyl)-6-methoxy-9H-carbazole-4-carboxamide] | < 50 nM |
| Cc1noc(C)c1-c1cc(C(N)=O)c2c3cc(O)ccc3n(Cc3ccccc3)c2c1 [Example 178, 9-benzyl-2-(3,5-dimethyl-4-isoxazolyl)-6-hydroxy-9H-carbazole-4-carboxamide] | < 50 nM |

Now from value to compound:

| IC50 | Compound |
| --- | --- |
| < 50 nM | Cc1noc(C)c1-c1cc(C(N)=O)c2c3cc(S(C)(=O)=O)ccc3n(Cc3ccccc3)c2c1 [Example 181, 9-benzyl-2-(3,5-dimethyl-4-isoxazolyl)-6-(methylsulfonyl)-9H-carbazole-4-carboxamide] |
| < 7500 nM | COC(=O)c1ccc2c3c(C#N)cc(-c4c(C)noc4C)cc3n(Cc3ccccc3)c2c1 [Example 182, Methyl 9-benzyl-5-cyano-7-(3,5-dimethyl-4-isoxazolyl)-9H-carbazole-2-carboxylate] |
| < 50 nM | COC(=O)c1ccc2c3c(C(N)=O)cc(-c4c(C)noc4C)cc3n(Cc3ccccc3)c2c1 [Example 183, Methyl 9-benzyl-5-carbamoyl-7-(3,5-dimethyl-4-isoxazolyl)-9H-carbazole-2-carboxylate] |
| < 500 nM | Cc1noc(C)c1-c1cc(C#N)c2c3ccc(C(C)(C)O)cc3n(Cc3ccccc3)c2c1 [Example 184, 9-benzyl-2-(3,5-dimethyl-4-isoxazolyl)-7-(1-hydroxy-1-methylethyl)-9H-carbazole-4-carbonitrile] |
| < 50 nM | Cc1noc(C)c1-c1cc(C#N)c2c3ccc(C(=O)O)cc3n(Cc3ccccc3)c2c1 [Example 186, 9-Benzyl-5-cyano-7-(3,5-dimethyl-4-isoxazolyl)-9H-carbazole-2-carboxylic acid] |
| < 500 nM | Cc1noc(C)c1-c1cc(C#N)c2c3ccc(C(=O)N4CCOCC4)cc3n(Cc3ccccc3)c2c1 [Example 187, 9-Benzyl-2-(3,5-dimethyl-4-isoxazolyl)-7-(morpholine-4-carbonyl)-9H-carbazole-4-carbonitrile] |
| < 50 nM | Cc1noc(C)c1-c1cc(C(N)=O)c2c3ccc(C(=O)N4CCOCC4)cc3n(Cc3ccccc3)c2c1 [Example 188, 9-Benzyl-2-(3,5-dimethyl-4-isoxazolyl)-7-(morpholine-4-carbonyl)-9H-carbazole-4-carboxamide] |
| < 50 nM | CON(C)C(=O)c1ccc2c3c(C(N)=O)cc(-c4c(C)noc4C)cc3n(Cc3ccccc3)c2c1 [Example 189, 9-Benzyl-7-(3,5-dimethyl-4-isoxazolyl)-N˜2˜-methoxy-N˜2˜-methyl-9H-carbazole-2,5-dicarboxamide] |
| < 500 nM | Cc1noc(C)c1-c1cc(C(N)=O)c2c3ccc(C(=O)c4cccc(F)c4)cc3n(Cc3ccccc3)c2c1 [Example 190, 9-Benzyl-2-(3,5-dimethyl-4-isoxazolyl)-7-(3-fluorobenzoyl)-9H-carbazole-4-carboxamide] |
| < 50 nM | COC(=O)c1ccc2c3c(C#N)cc(-c4c(C)noc4C)cc3n(C(c3ccccc3)c3ccccc3)c2c1 [Example 191, Methyl 5-cyano-7-(3,5-dimethyl-4-isoxazolyl)-9-(diphenylmethyl)-9H-carbazole-2-carboxylate] |
| < 50 nM | COC(=O)c1ccc2c3c(C(N)=O)cc(-c4c(C)noc4C)cc3n(C(c3ccccc3)c3ccccc3)c2c1 [Example 192, Methyl 5-carbamoyl-7-(3,5-dimethyl-4-isoxazolyl)-9-(diphenylmethyl)-9H-carbazole-2-carboxylate] |
| < 50 nM | Cc1noc(C)c1-c1cc(C#N)c2c3ccc(C(=O)O)cc3n(C(c3ccccc3)c3ccccc3)c2c1 [Example 193, 5-Cyano-7-(3,5-dimethyl-4-isoxazolyl)-9-(diphenylmethyl)-9H-carbazole-2-carboxylic acid] |
| < 50 nM | Cc1noc(C)c1-c1cc(C#N)c2c3ccc(C(N)=O)cc3n(C(c3ccccc3)c3ccccc3)c2c1 [Example 194, 5-Cyano-7-(3,5-dimethyl-4-isoxazolyl)-9-(diphenylmethyl)-9H-carbazole-2-carboxamide] |
| < 50 nM | Cc1noc(C)c1-c1cc(C(N)=O)c2c3ccc(C(=O)N(C)C)cc3n(C(c3ccccc3)c3ccccc3)c2c1 [Example 195, 7-(3,5-Dimethyl-4-isoxazolyl)-9-(diphenylmethyl)-N˜2˜,N˜2˜-dimethyl-9H-carbazole-2,5-dicarboxamide] |
| < 50 nM | Cc1noc(C)c1-c1cc(C(N)=O)c2c3ccc(C(=O)N4CCOCC4)cc3n(C(c3ccccc3)c3ccccc3)c2c1 [Example 196, 2-(3,5-Dimethyl-4-isoxazolyl)-9-(diphenylmethyl)-7-(4-morpholinylcarbonyl)-9H-carbazole-4-carboxamide] |
| < 50 nM | Cc1noc(C)c1-c1cc(C(N)=O)c2c3ccc(C(C)(C)O)cc3n(CC3CCOCC3)c2c1 [Example 197, 2-(3,5-dimethyl-4-isoxazolyl)-7-(1-hydroxy-1-methylethyl)-9-(tetrahydro-2H-pyran-4-ylmethyl)-9H-carbazole-4-carboxamide] |
| < 50 nM | COC(C)(C)c1ccc2c3c(C(N)=O)cc(-c4c(C)noc4C)cc3n([C@H](c3ccccc3)C3CCOCC3)c2c1 [Example 228, 2-(Dimethyl-1,2-oxazol-4-yl)-7-(2-methoxypropan-2-yl)-9-[(S)-oxan-4-yl(phenyl)methyl]-9H-carbazole-4-carboxamide] |
| < 50 nM | Cc1noc(C)c1-c1cc(C(N)=O)c2c3ccc(C(C)C)cc3n([C@H](c3ccccc3)C3CCOCC3)c2c1 [Example 229, 2-(Dimethyl-1,2-oxazol-4-yl)-9-[(S)-oxan-4-yl(phenyl)methyl]-7-(propan-2-yl)-9H-carbazole-4-carboxamide] |
